{"source": "ChEMBL document CHEMBL1136606", "about": "“Design and synthesis of bicyclic pyrimidinone-based HCV NS3 protease inhibitors” (Bioorg Med Chem Lett, 2003)", "data": [{"target": "NS3 (Hepatitis C virus, UniProt A3EZJ3)", "sequence (A3EZJ3 whole entry)": "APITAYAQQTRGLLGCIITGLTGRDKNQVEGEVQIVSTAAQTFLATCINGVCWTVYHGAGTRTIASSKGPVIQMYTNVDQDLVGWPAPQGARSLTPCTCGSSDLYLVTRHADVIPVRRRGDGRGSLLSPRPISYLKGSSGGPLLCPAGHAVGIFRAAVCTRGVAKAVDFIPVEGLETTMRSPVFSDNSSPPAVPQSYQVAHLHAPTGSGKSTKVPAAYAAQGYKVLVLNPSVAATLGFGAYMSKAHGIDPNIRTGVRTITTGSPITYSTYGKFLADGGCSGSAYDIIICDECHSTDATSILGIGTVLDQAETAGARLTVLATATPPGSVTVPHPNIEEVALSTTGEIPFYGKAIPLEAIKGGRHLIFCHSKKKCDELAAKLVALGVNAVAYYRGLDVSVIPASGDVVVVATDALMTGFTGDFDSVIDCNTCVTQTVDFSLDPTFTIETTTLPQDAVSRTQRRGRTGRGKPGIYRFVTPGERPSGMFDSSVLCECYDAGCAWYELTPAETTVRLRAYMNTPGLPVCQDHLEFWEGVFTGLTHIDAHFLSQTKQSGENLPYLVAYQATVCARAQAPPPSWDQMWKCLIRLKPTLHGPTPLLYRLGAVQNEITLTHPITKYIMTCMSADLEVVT", "experiment": "Inhibitory activity hepatitis C virus NS3 protease.", "parameters": "species or system Hepacivirus hominis", "units": {"IC50": "nM"}, "values": [{"smiles": "CC[C@H](NC(=O)[C@@H]1C[C@@](C)(NC(=O)Nc2ccccc2C)c2ncc(NCc3cccc(C(F)(F)F)c3)c(=O)n21)B1OC2C3CC(C[C@]2(C)O1)C3(C)C", "note": "(some centres not stated)", "IC50": 780}, {"smiles": "CCOc1ccccc1NC(=O)N[C@]1(C)C[C@@H](C(=O)N[C@@H](CC)B2OC3C4CC(C[C@]3(C)O2)C4(C)C)n2c1ncc(NCc1cccc(C(F)(F)F)c1)c2=O", "note": "(some centres not stated)", "IC50": 160}, {"smiles": "CC[C@H](NC(=O)[C@@H]1C[C@@](C)(CC(=O)Nc2cccc3ccccc23)c2ncc(NCc3cccc(C(F)(F)F)c3)c(=O)n21)B1OC2C3CC(C[C@]2(C)O1)C3(C)C", "note": "(some centres not stated)", "IC50": 170}, {"smiles": "CC[C@H](NC(=O)[C@@H]1C[C@@](C)(NC(=O)Nc2ccccc2OC)c2ncc(NCc3cccc(C(F)(F)F)c3)c(=O)n21)B1OC2C3CC(C[C@]2(C)O1)C3(C)C", "note": "(some centres not stated)", "IC50": 360}, {"smiles": "CC[C@H](NC(=O)[C@@H]1C[C@@](C)(CC(=O)Nc2cccc(SC)c2)c2ncc(NCc3cccc(C(F)(F)F)c3)c(=O)n21)B1OC2C3CC(C[C@]2(C)O1)C3(C)C", "note": "(some centres not stated)", "IC50": 90}, {"smiles": "CC[C@H](NC(=O)[C@@H]1C[C@@](C)(NC(=O)c2ccccc2)c2ncc(NCc3cccc(C(F)(F)F)c3)c(=O)n21)B1OC2C3CC(C[C@]2(C)O1)C3(C)C", "note": "(some centres not stated)", "IC50": 3400}, {"smiles": "CC[C@H](NC(=O)[C@@H]1C[C@@](C)(CC(=O)Nc2ccccc2C(=O)NC)c2ncc(NCc3cccc(C(F)(F)F)c3)c(=O)n21)B1OC2C3CC(C[C@]2(C)O1)C3(C)C", "note": "(some centres not stated)", "IC50": 180}, {"smiles": "CCOC(=O)c1ccccc1NC(=O)N[C@]1(C)C[C@@H](C(=O)N[C@@H](CC)B2OC3C4CC(C[C@]3(C)O2)C4(C)C)n2c1ncc(NCc1cccc(C(F)(F)F)c1)c2=O", "note": "(some centres not stated)", "IC50": 100}, {"smiles": "CCOC(=O)c1ccc(NC(=O)N[C@]2(C)C[C@@H](C(=O)N[C@@H](CC)B3OC4C5CC(C[C@]4(C)O3)C5(C)C)n3c2ncc(NCc2cccc(C(F)(F)F)c2)c3=O)cc1", "note": "(some centres not stated)", "IC50": 1100}, {"smiles": "CC[C@H](NC(=O)[C@@H]1C[C@@](C)(NC(=O)Nc2ccccc2-c2ccccc2)c2ncc(NCc3cccc(C(F)(F)F)c3)c(=O)n21)B1OC2C3CC(C[C@]2(C)O1)C3(C)C", "note": "(some centres not stated)", "IC50": 30000}, {"smiles": "CC[C@H](NC(=O)[C@@H]1CCc2ncc(NCc3cccc(C(F)(F)F)c3)c(=O)n21)B1OC2C3CC(C[C@]2(C)O1)C3(C)C", "note": "(some centres not stated)", "IC50": 7000}, {"smiles": "CC[C@H](NC(=O)[C@@H]1C[C@@](C)(NC(=O)Nc2cccc(C(=O)OC)c2)c2ncc(NCc3cccc(C(F)(F)F)c3)c(=O)n21)B1OC2C3CC(C[C@]2(C)O1)C3(C)C", "note": "(some centres not stated)", "IC50": 1770}, {"smiles": "CC[C@H](NC(=O)[C@@H]1C[C@@](C)(NC(=O)Nc2ccccc2[N+](=O)[O-])c2ncc(NCc3cccc(C(F)(F)F)c3)c(=O)n21)B1OC2C3CC(C[C@]2(C)O1)C3(C)C", "note": "(some centres not stated)", "IC50": 180}, {"smiles": "CC[C@H](NC(=O)[C@@H]1C[C@@](C)(NC(=O)NCc2ccccc2)c2ncc(NCc3cccc(C(F)(F)F)c3)c(=O)n21)B1OC2C3CC(C[C@]2(C)O1)C3(C)C", "note": "(some centres not stated)", "IC50": 1200}, {"smiles": "CC[C@H](NC(=O)[C@@H]1C[C@@](C)(NC(=O)Nc2cccc(F)c2)c2ncc(NCc3cccc(C(F)(F)F)c3)c(=O)n21)B1OC2C3CC(C[C@]2(C)O1)C3(C)C", "note": "(some centres not stated)", "IC50": 500}, {"smiles": "CC[C@H](NC(=O)[C@@H]1C[C@@](C)(NC(=O)Nc2ccc(Cl)cc2)c2ncc(NCc3cccc(C(F)(F)F)c3)c(=O)n21)B1OC2C3CC(C[C@]2(C)O1)C3(C)C", "note": "(some centres not stated)", "IC50": 1100}, {"smiles": "CC[C@H](NC(=O)[C@@H]1C[C@@](C)(CC(=O)Nc2ccccc2OC)c2ncc(NCc3cccc(C(F)(F)F)c3)c(=O)n21)B1OC2C3CC(C[C@]2(C)O1)C3(C)C", "note": "(some centres not stated)", "IC50": 200}, {"smiles": "CC[C@H](NC(=O)[C@@H]1C[C@@](C)(NC(=O)Nc2ccccc2)c2ncc(NCc3cccc(C(F)(F)F)c3)c(=O)n21)B1OC2C3CC(C[C@]2(C)O1)C3(C)C", "note": "(some centres not stated)", "IC50": 790}, {"smiles": "CC[C@H](NC(=O)[C@@H]1C[C@@](C)(CC(=O)Nc2ccccc2[N+](=O)[O-])c2ncc(NCc3cccc(C(F)(F)F)c3)c(=O)n21)B1OC2C3CC(C[C@]2(C)O1)C3(C)C", "note": "(some centres not stated)", "IC50": 2530}, {"smiles": "CC[C@H](NC(=O)[C@@H]1C[C@@](C)(NC(=O)Nc2ccc(Oc3ccccc3)cc2)c2ncc(NCc3cccc(C(F)(F)F)c3)c(=O)n21)B1OC2C3CC(C[C@]2(C)O1)C3(C)C", "note": "(some centres not stated)", "IC50": 4740}, {"smiles": "CC[C@H](NC(=O)[C@@H]1C[C@@](C)(NC(=O)Nc2ccccc2Oc2ccccc2)c2ncc(NCc3cccc(C(F)(F)F)c3)c(=O)n21)B1OC2C3CC(C[C@]2(C)O1)C3(C)C", "note": "(some centres not stated)", "IC50": 300}, {"smiles": "CC[C@H](NC(=O)[C@@H]1C[C@@](C)(CC(=O)Nc2ccccc2C(=O)N(C)C)c2ncc(NCc3cccc(C(F)(F)F)c3)c(=O)n21)B1OC2C3CC(C[C@]2(C)O1)C3(C)C", "note": "(some centres not stated)", "IC50": 1460}, {"smiles": "CC[C@H](NC(=O)[C@@H]1C[C@@](C)(NC(=O)Nc2ccc(SC)cc2)c2ncc(NCc3cccc(C(F)(F)F)c3)c(=O)n21)B1OC2C3CC(C[C@]2(C)O1)C3(C)C", "note": "(some centres not stated)", "IC50": 2360}, {"smiles": "CC[C@H](NC(=O)[C@@H]1C[C@@](C)(NC(=O)Cc2ccccc2)c2ncc(NCc3cccc(C(F)(F)F)c3)c(=O)n21)B1OC2C3CC(C[C@]2(C)O1)C3(C)C", "note": "(some centres not stated)", "IC50": 2400}, {"smiles": "CC[C@H](NC(=O)[C@@H]1C[C@@](C)(NC(=O)Nc2ccc(F)cc2)c2ncc(NCc3cccc(C(F)(F)F)c3)c(=O)n21)B1OC2C3CC(C[C@]2(C)O1)C3(C)C", "note": "(some centres not stated)", "IC50": 1030}, {"smiles": "CC[C@H](NC(=O)[C@@H]1C[C@@](C)(NC(=O)Oc2ccccc2)c2ncc(NCc3cccc(C(F)(F)F)c3)c(=O)n21)B1OC2C3CC(C[C@]2(C)O1)C3(C)C", "note": "(some centres not stated)", "IC50": 1400}, {"smiles": "CC[C@H](NC(=O)[C@@H]1C[C@@](C)(NC(=O)Nc2cccc(SC)c2)c2ncc(NCc3cccc(C(F)(F)F)c3)c(=O)n21)B1OC2C3CC(C[C@]2(C)O1)C3(C)C", "note": "(some centres not stated)", "IC50": 130}, {"smiles": "CC[C@H](NC(=O)[C@@H]1C[C@@](C)(NC(=O)Nc2ccccc2C(=O)OC)c2ncc(NCc3cccc(C(F)(F)F)c3)c(=O)n21)B1OC2C3CC(C[C@]2(C)O1)C3(C)C", "note": "(some centres not stated)", "IC50": 80}, {"smiles": "CC[C@H](NC(=O)[C@@H]1C[C@@](C)(NC(=O)Nc2ccccc2SC)c2ncc(NCc3cccc(C(F)(F)F)c3)c(=O)n21)B1OC2C3CC(C[C@]2(C)O1)C3(C)C", "note": "(some centres not stated)", "IC50": 710}, {"smiles": "CC[C@H](NC(=O)[C@@H]1C[C@@](C)(NC(=O)Nc2ccccc2C(=O)O)c2ncc(NCc3cccc(C(F)(F)F)c3)c(=O)n21)B1OC2C3CC(C[C@]2(C)O1)C3(C)C", "note": "(some centres not stated)", "IC50": 6400}, {"smiles": "CCOC(=O)c1cccc(NC(=O)N[C@]2(C)C[C@@H](C(=O)N[C@@H](CC)B3OC4C5CC(C[C@]4(C)O3)C5(C)C)n3c2ncc(NCc2cccc(C(F)(F)F)c2)c3=O)c1", "note": "(some centres not stated)", "IC50": 1550}, {"smiles": "CC[C@H](NC(=O)[C@@H]1C[C@@](C)(CC(=O)Nc2ccccc2C(N)=O)c2ncc(NCc3cccc(C(F)(F)F)c3)c(=O)n21)B1OC2C3CC(C[C@]2(C)O1)C3(C)C", "note": "(some centres not stated)", "IC50": 150}, {"smiles": "CC[C@H](NC(=O)[C@@H]1C[C@@](C)(CC(=O)Nc2nccc3ccccc23)c2ncc(NCc3cccc(C(F)(F)F)c3)c(=O)n21)B1OC2C3CC(C[C@]2(C)O1)C3(C)C", "note": "(some centres not stated)", "IC50": 440}, {"smiles": "CC[C@H](NC(=O)[C@@H]1C[C@@](C)(NC(=O)Nc2cccc3ccccc23)c2ncc(NCc3cccc(C(F)(F)F)c3)c(=O)n21)B1OC2C3CC(C[C@]2(C)O1)C3(C)C", "note": "(some centres not stated)", "IC50": 270}, {"smiles": "CC[C@H](NC(=O)[C@@H]1C[C@@](C)(CC(=O)Nc2ccccc2)c2ncc(NCc3cccc(C(F)(F)F)c3)c(=O)n21)B1OC2C3CC(C[C@]2(C)O1)C3(C)C", "note": "(some centres not stated)", "IC50": 170}, {"smiles": "CC[C@H](NC(=O)[C@@H]1C[C@@](C)(NC(=O)Nc2ccccc2Cl)c2ncc(NCc3cccc(C(F)(F)F)c3)c(=O)n21)B1OC2C3CC(C[C@]2(C)O1)C3(C)C", "note": "(some centres not stated)", "IC50": 370}, {"smiles": "CC[C@H](NC(=O)[C@@H]1C[C@@](C)(CC(=O)Nc2ccccc2C(=O)OC)c2ncc(NCc3cccc(C(F)(F)F)c3)c(=O)n21)B1OC2C3CC(C[C@]2(C)O1)C3(C)C", "note": "(some centres not stated)", "IC50": 100}]}]}
